Patent publication US20100209959A1, “TUMOUR-CELL-FIXING CELLS” (UNIVERSITE PIERRE ET MARIE CURIE-PARIS VI, priority 2007, published 2010)

Columns and labels:
HL60 cells [1] = experiment: Proliferation of HL60 cells, free or fixed to hospicells, after exposure to AraC or DNR; assay type: cell-based, human; details: for living HL60 cells fixed to the hospicells during treatment / living free HL60 cells during treatment: 5 days' treatment; for living HL60 cells fixed to the hospicells during treatment / living HL60 cells on hospicells after the treatment is stopped: HL60 fixed to hospicells; for living HL60 cells on hospicells after the treatment is stopped / growth of free HL60 cells after the treatment is stopped: drug removed, fresh medium
Method: (§1) HL60 cells cultured with hospicells in RPMI medium were treated for 5 days with either aracytin (AraC) or daunorubicin (DNR).
After 5 days' treatment, the drug was removed and the cells were cultured again in fresh medium.
The number of living HL60 cells was measured throughout the experiment using the image analysis system.

hospicells = experiment: Toxicity of the drug for hospicells in HL60/hospicell co-culture; assay type: cell-based
Method: as §1
This effect of “regrowth” of the cells is greater with aracytin than with daunorubicin, the difference being linked to the toxicity of daunorubicin for the hospicells.

OVCAR3 cells = experiment: Chemoresistance of OVCAR3 cells co-cultured with hospicells (SRB assay); assay type: cell-based; details: verapamil 1.4 μM added, in the presence of carboplatin and paclitaxel
Method: Briefly, the hospicells were cultivated to 60% confluence. 2·10^4 OVCAR3 cells expressing GFP were then co-cultivated with the hospicells for 24 hours before being brought into contact with a chemotherapeutic agent (carboplatin 22.2 μM and paclitaxel 1.4 μM). The chemotherapeutic effect was determined with the aid of a quantitative colorimetric assay with sulforhodamine B (SRB) as described by Skehan et al. (1990) J. Natl. Cancer Inst. 82:1107-1112. The pink colour of the SRB was quantified by measuring the absorbance at 540 nm. For each condition, the mean cell density and the standard deviation were calculated from the data obtained for 6 wells. The experiments were repeated 3 times.
The role of the MDR proteins in the chemoresistance imparted by the hospicells was confirmed by repeating the above co-culture experiments of hospicells and OVCAR3 cells in the presence of carboplatin and paclitaxel, and adding to the culture medium verapamil (1.4 μM), an MDR1 protein inhibitor.

HL60 cells [2] = experiment: Adhesion of HL60 cells to hospicells; assay type: cell-based, human; details: HL60 incubated beforehand with agent; tumour cells/hospicells 5/1; 24 hours at 37° C.
Method: HL60 cells were incubated in RPMI medium under […]: • HL60 cells alone (control) • HL60 cells+anti-arrestin antibody (control antibody) • HL60 cells+RGD (Arg-Gly-Asp, integrin consensus sequence, which partially prevents integrin dependent adhesion) • HL60 cells+anti-CD11a antibody • HL60 cells+anti-CD49d antibody • HL60 cells+anti-CD11a antibody+anti-CD49d antibody • HL60 cells+anti-CD11a antibody+anti-CD49d antibody+RGD
For each condition, HL60 cells were deposited separately and in identical amounts in 6 different wells containing complete RPMI medium and fixing cells which had adhered to the support. The ratio between tumour cells and hospicells was 5/1. After incubation for 24 hours at 37° C., the HL60 cells that had not adhered were recovered and counted. The percentage of HL60 cells adhering to the hospicells was then calculated for each condition.

Nc1ccn([C@@H]2O[C@H](CO)[C@@H](O)[C@@H]2O)c(=O)n1 [AraC, aracytin]
living HL60 cells fixed to the hospicells during treatment (HL60 cells [1]): no longer detectable
living HL60 cells on hospicells after the treatment is stopped (HL60 cells [1]): living HL60 cells are identifiable
effect of regrowth of the HL60 cells on hospicells, aracytin compared with daunorubicin (HL60 cells [1]; after the treatment is stopped): greater
living free HL60 cells during treatment (HL60 cells [1]): die
growth of free HL60 cells after the treatment is stopped (HL60 cells [1]): do not grow

COc1cccc2c1C(=O)c1c(O)c3c(c(O)c1C2=O)C[C@@](O)(C(C)=O)C[C@@H]3O[C@H]1C[C@H](N)[C@H](O)[C@H](C)O1 [DNR, daunorubicin]
living HL60 cells fixed to the hospicells during treatment (HL60 cells [1]): no longer detectable
living HL60 cells on hospicells after the treatment is stopped (HL60 cells [1]): living HL60 cells are identifiable
living free HL60 cells during treatment (HL60 cells [1]): die
growth of free HL60 cells after the treatment is stopped (HL60 cells [1]): do not grow
toxicity for the hospicells (hospicells): toxicity

COc1ccc(CCN(C)CCCC(C#N)(c2ccc(OC)c(OC)c2)C(C)C)cc1OC (stereo not drawn) [verapamil]
chemoresistance imparted by the hospicells to the OVCAR3 cells (OVCAR3 cells): dramatically reduces

Arg-Gly-Asp [RGD]
adhesion of the HL60 cells to the hospicells (HL60 cells [2]): partially blocks
